Data taken from patent publication US7884103B2 (priority 2003, dated 2011).

Experiments:
[1] = tested on: Septoria nodorum (Glume blotch); assay: Septoria nodorum wheat leaf segment test, preventive fungicidal activity; type: cell-based; settings: tested dose range 200 to 22 ppm, wheat leaf segments, assessed 4 dpi
Protocol: Septoria nodorum (Glume blotch): Wheat leaf segments are placed on agar in a multiwell plate (24-well format) and sprayed with test solutions. After drying, the leaf disks are inoculated with a spore suspension of the fungus. After appropriate incubation the activity of a compound is assessed 4 dpi (days after inoculation) as preventive fungicidal activity. Within the tested dose range of 200 to 22 ppm the Compound No. 82 inhibited at least 80% of fungal growth.

[2] = tested on: Plasmopara viticola on vines; assay: Action against Plasmopara viticola on vines, residual-protective action (D-1a); type: in vivo; settings: vine seedlings sprayed 24 hours before infection, evaluated after 6 days, untreated plants attack 60-100%
Protocol: (§1) Action Against Plasmopara Viticola on Vines
A) Residual-Protective Action
Fungus infestation is evaluated after incubation for 6 days at 95-100% relative humidity and +20° C.

[3] = tested on: Plasmopara viticola on vines; assay: Action against Plasmopara viticola on vines, residual-curative action (D-1b); type: in vivo; settings: vine seedlings sprayed 24 hours after infection, evaluated 6 days after infection, untreated plants attack 60-100%
Protocol: as §1
b) Residual-Curative Action
Vine seedlings are infected at the 4- to 5-leaf stage with a sporangia suspension of the fungus. […] After the spray coating has dried, the treated plants are placed in the humidity chamber again. Fungus infestation is evaluated 6 days after infection.

| SMILES | inhibition of fungal growth [1] | inhibition at 200 ppm [2] | inhibition at 200 ppm [3] |
| --- | --- | --- | --- |
| CCOc1ccc(OCC(C)(NS(=O)(=O)Cc2ccccc2)C(=O)OC)cc1 (stereo not shown) [compound 082, 3-(4-Ethoxy-phenoxy)-2-methyl-2-phenylmethanesulfonylamino-propionic Acid Methyl Ester] | at least 80% | – | – |
| CCOc1ccc(OCC(C)(NS(=O)(=O)Cc2ccccc2)C(=O)N(C)OC)cc1 (stereo not shown) [compound 083, 3-(4-Ethoxy-phenoxy)-N-methoxy-2,N-dimethyl-2-phenylmethanesulfonylamino-propionamide] | – | 80 to 100% | 80 to 100% |
| C#CCNC(=O)C(C)(COc1ccc(OCC)cc1)NS(=O)(=O)Cc1ccccc1 (stereo not shown) [compound 087, 3-(4-Ethoxy-phenoxy)-2-methyl-2-phenylmethanesulfonylamino-N-prop-2-ynyl-propionamide] | – | 80 to 100% | 80 to 100% |
| CC(COc1ccc(-n2cncn2)cc1)(NS(=O)(=O)Cc1ccccc1)C(=O)O (stereo not shown) [compound 100, 2-Methyl-2-phenylmethanesulfonylamino-3-(4-[1,2,4]triazol-1-yl-phenoxy)-propionic Acid] | – | 80 to 100% | 80 to 100% |
